Consider three compounds from ChEMBL document CHEMBL1201862, “PubChem BioAssay data set” (2004).

Some test systems named below: M14; NCI/ADR-RES; SNB-75; MOLT-4; NCI-H522; A498; Malme-3M; HT-29; SR; UO-31; MDA-MB-435; SF-295; CCRF-CEM; UACC-257; SF-268; NCI-H226; U-251; SNB-19; HCT-116; MDA-MB-231.
What all share (test): NCI anticancer screen, dose series, 48 h

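Grown in 96-well plates, cells were treated for 48 hours with each compound at five concentrations. Insufficient inhibition: endpoint recorded as highest concentration tested. GI50 = concentration required for 50% inhibition of growth.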 The source made the active and inactive calls. Cut-off read from the data, not from the text of the source: active = GI50 up to about 1.1 µM and inactive = higher.

`S=c1[nH]n2c(CCCCCCCCc3nnc4sc(=S)[nH]n34)nnc2s1`: the GI50 in the test with M14, in the test with NCI/ADR-RES, in the test with SNB-75, in the test with MOLT-4, in the test with NCI-H522 and in the test on A498 was > 100 µM (inactive) throughout. For the same compound, the GI50 with Malme-3M, in the test on HT-29, in the test with SR, in the test with UO-31, in the test on MDA-MB-435 and in the test on SF-295 was > 100 µM (inactive) each time. In addition, the GI50 with CCRF-CEM was 83 µM (inactive); in the test with UACC-257 it was > 100 µM (inactive); in the test with SF-268 it was > 100 µM (inactive); in the test with NCI-H226, > 100 µM (inactive); in the test on U-251, > 100 µM (inactive); with SNB-19 it was > 100 µM (inactive). For the same compound, the GI50 with HCT-116 and in the test with MDA-MB-231 was > 100 µM (inactive) each time.

Take `c1ccc2c(c1)Sc1nccc3ccnc-2c13`: the GI50 with M14 was 79.1 µM (inactive); with NCI/ADR-RES it was 25.2 µM (inactive); in the test on SNB-75 it was 15.2 µM (inactive); with MOLT-4, 8.26 µM (inactive); in the test with NCI-H522 it was 21.9 µM (inactive); in the test with A498 it was 16.6 µM (inactive). In addition, the GI50 with Malme-3M was 31.6 µM (inactive); in the test on HT-29, 11.9 µM (inactive); with SR, 11.9 µM (inactive); in the test on UO-31 it was 7.5 µM (inactive); with MDA-MB-435, 39.5 µM (inactive); in the test on SF-295 it was 33.3 µM (inactive). For the same compound, the GI50 in the test with CCRF-CEM is 56.9 µM (inactive); in the test on UACC-257, 73.6 µM (inactive); with SF-268, 18.7 µM (inactive); in the test on NCI-H226 it was 27.9 µM (inactive); with U-251, 23.9 µM (inactive); with SNB-19 it was 20.7 µM (inactive). In addition, the values for the GI50 in the test with HCT-116 and with MDA-MB-231 were 27.4 µM (inactive) and > 100 µM (inactive), respectively.

`Cn1c2ccccc2c(=O)c2c(O)cc3c(c21)CC(C1(C)CO1)O3` (stereo not given): the GI50 was 1.51 µM (inactive) in the test on M14; 1.32 µM (inactive) in the test on NCI/ADR-RES; 7.28 µM (inactive) with SNB-75; 0.0665 µM (active) in the test with MOLT-4; 2.93 µM (inactive) in the test with NCI-H522; 11.2 µM (inactive) in the test on A498. The GI50 is 10.5 µM (inactive) with Malme-3M; 4.41 µM (inactive) in the test with HT-29; 0.111 µM (active) in the test on SR; 1.42 µM (inactive) in the test on UO-31; 1.64 µM (inactive) in the test with MDA-MB-435; 9.44 µM (inactive) with SF-295. In addition, the GI50 with CCRF-CEM is 0.056 µM (active); with UACC-257, 3.93 µM (inactive); in the test on SF-268, 0.942 µM (active); in the test with NCI-H226, 13.3 µM (inactive); in the test on U-251 it was 3.16 µM (inactive); in the test with SNB-19 it was 10.4 µM (inactive). Besides, the values for the GI50 with HCT-116 and in the test on MDA-MB-231 were 0.935 µM (active) and 2.03 µM (inactive), respectively.
